{"source": "patent US9023852B2", "about": "“1, 2, 4-thiadiazol-5-ylpiperazine derivatives useful in the treatment of neurodegenerative diseases” (Remynd NV, priority 2011, dated 2015)", "tested_on": "M17—3TAU(P301L) cells", "experiment": "Neuroblastoma tauopathy model: inhibition of TAU-induced cytotoxicity (LDH)", "type": "cell-based", "conditions": "Homo sapiens, 168 h; inhibition of TAU-induced toxicity (LDH), 7 days differentiation with retinoic acid", "text": "A TAU expression plasmid was constructed by sub-cloning the cDNA encoding for human TAU-P301L protein, wherein proline at position 301 is substituted by a leucine residue, into mammalian expression vector pcDNA3.1 resulting in the plasmid pcDNA3.1-TAUP301L. Plasmids pcDNA3.1 and pcDNA3.1-TAU P301L were transfected into human neuroblastoma cells (BE-M17; ATCC No. CRL-2267™) using lipofectamine reagent and subsequently, independent clonal cell lines with the plasmids stably integrated into the genome were selected by antibiotic resistance selection (Geneticin (G418)), resulting in cell lines M17.pcDNA3 and M17—3TAUP301L. Expression of the TAUP301L gene in the M17—3TAUP301L cells was confirmed by Western blot analysis.\nDifferentiation of the cells with RA leads to phosphorylation and subsequent aggregation of TAU, inducing a tauopathy in these cells. Cytotoxicity of cells was measured by quantification of lactate dehydrogenase (LDH) levels. In dead cells LDH is leaked out of the cells into the medium due to a loss of plasma-membrane integrity.\nBriefly, 3 days preceding the experiment pre-cultures of M17.pcDNA3 and M17—3TAU(P301L) cells were prepared, starting from a stock culture, at a density of 50.000-100.000 cells/cm2 in detection medium (Optimem Reduced Serum without phenol red (Gibco, Cat. 31985-047) supplemented with 1% fetal calf serum (FCS), 1 mM sodium pyruvate, 1× non-essential amino acids (NEAA), 500 μg/ml G418 and 0.5× antibiotic/antimycotic (ABAM)). At the day of the experiment these precultures were diluted to ˜0, 1.106 cells/ml in detection medium without FCS and 60 μL of this suspension is dispensed per well into a 96-well microtiter plate. After 3 hours of incubation at 37° C./5% CO2 an equal volume of detection medium containing 2.5 μM RA was added and subsequently incubated for 7 days at 37° C./5% CO2. After 7 days, LDH activity was determined using the Promega Cytotox 96 Non-Radioactive cytotoxicity assay (Cat. G1780), according the manufacturer's instructions. Cytotoxicity is measured as the ratio of LDH increase in the supernatant divided by the LDH increase in the total cell suspension (sum of the LDH measured in cells and supernatant).\nThe M17—3TAU(P301L) cell line makes it possible to assess the ability of novel compounds to inhibit TAU-induced cytotoxicity. […] Compounds were tested for their ability to hamper TAU-induced toxicity at different concentrations, ranging from low non-effective concentrations to high potent concentrations. Afterwards, the dose-dependent inhibition curve was used to calculate their EC50 (Table 1).", "note": "pEC50: −log10 of the molar value."}
{"smiles": "Cc1ncc(-c2nsc(N3CCN(CCc4ccc(F)cc4)CC3)n2)cn1", "note": "[Example 181, 5-(4-(4-fluorophenethyl)piperazin-1-yl)-3-(2-methylpyrimidin-5-yl)-1,2,4-thiadiazole]", "values": [{"measurement": "pEC50", "value": 7.50}]}
{"smiles": "N#Cc1ccc(-c2nsc(N3CCN(CCc4cccc(C(F)(F)F)c4)CC3)n2)cc1", "note": "[Example 143, 4-(5-{4-[2-(3-Trifluoromethyl-phenyl)-ethyl]-piperazin-1-yl}-[1,2,4]thiadiazol-3-yl)-benzonitrile]", "values": [{"measurement": "pEC50", "value": 6.85}]}
{"smiles": "COc1cccc(CCN2CCN(c3nc(-c4ccccc4OC)ns3)CC2)c1", "note": "[Example 35, 1-[2-(3-Methoxy-phenyl)-ethyl]-4-[3-(2-methoxy-phenyl)-[1,2,4]thiadiazol-5-yl]-piperazine]", "values": [{"measurement": "pEC50", "value": 8.46}]}
{"smiles": "Cc1ccc(-c2nsc(N3CCN(Cc4ccccc4C)CC3)n2)cn1", "note": "[Example 150, 1-(2-Methyl-benzyl)-4-[3-(6-methyl-pyridin-3-yl)-[1,2,4]thiadiazol-5-yl]-piperazine]", "values": [{"measurement": "pEC50", "value": 6.73}]}
{"smiles": "Cc1cc(-c2nsc(N3CCN(CCc4ccc(F)c(F)c4)CC3)n2)cnn1", "note": "[Example 175, 5-(4-(3,4-difluorophenethyl)piperazin-1-yl)-3-(6-methylpyridazin-4-yl)-1,2,4-thiadiazole]", "values": [{"measurement": "pEC50", "value": 7.87}]}
{"smiles": "Fc1cccc(-c2nsc(N3CCN(CCC4CCCCC4)CC3)n2)c1", "note": "[Example 154, 1-(2-Cyclohexyl-ethyl)-4-[3-(3-fluoro-phenyl)[1,2,4]thiadiazol-5-yl]-piperazine]", "values": [{"measurement": "pEC50", "value": 7.77}]}
{"smiles": "COc1ccc(CCN2CCN(c3nc(-c4ccccc4OC)ns3)CC2)cc1", "note": "[Example 45, 1-[2-(4-Methoxy-phenyl)-ethyl]-4-[3-(2-methoxy-phenyl)[1,2,4]thiadiazol-5-yl]-piperazine]", "values": [{"measurement": "pEC50", "value": 9.15}]}
{"smiles": "Clc1ccc(-c2nsc(N3CCN(CCC4CCOCC4)CC3)n2)cc1", "note": "[Example 167, 3-(4-chlorophenyl)-5-(4-(2-(tetrahydro-2H-pyran-4-yl)ethyl)piperazin-1-yl)-1,2,4-thiadiazole]", "values": [{"measurement": "pEC50", "value": 8.23}]}
{"smiles": "Cc1ncc(-c2nsc(N3CCN(CCc4ccc(Cl)cc4)CC3)n2)cn1", "note": "[Example 180, 5-(4-(4-chlorophenethyl)piperazin-1-yl)-3-(2-methylpyrimidin-5-yl)-1,2,4-thiadiazole]", "values": [{"measurement": "pEC50", "value": 6.89}]}
{"smiles": "Cc1ccccc1CN1CCN(c2nc(-c3ccc(F)c(F)c3)ns2)CC1", "note": "[Example 107, 1-[3-(3,4-Difluoro-phenyl)-[1,2,4]thiadiazol-5-yl]-4-(2-methyl-benzyl)-piperazine]", "values": [{"measurement": "pEC50", "value": 7.14}]}
{"smiles": "Fc1cccc(-c2nsc(N3CCN(CCc4ccccc4)CC3)n2)c1", "note": "[Example 83, 1-[3-(3-Fluoro-phenyl)-[1,2,4]thiadiazol-5-yl]-4-phenethyl-piperazine]", "values": [{"measurement": "pEC50", "value": 8.02}]}
{"smiles": "Clc1ccc(CCN2CCN(c3nc(-c4cccc(Cl)c4)ns3)CC2)cc1", "note": "[Example 87, 1-[2-(4-Chloro-phenyl)-ethyl]-4-[3-(3-chloro-phenyl)-[1,2,4]thiadiazol-5-yl]-piperazine]", "values": [{"measurement": "pEC50", "value": 7.88}]}
{"smiles": "Clc1cncc(-c2nsc(N3CCN(CCN4CCCCC4)CC3)n2)c1", "note": "[Example 163, 3-(5-chloropyridin-3-yl)-5-(4-(2-(piperidin-1-yl)ethyl)piperazin-1-yl)-1,2,4-thiadiazole]", "values": [{"measurement": "pEC50", "value": 7.89}]}
{"smiles": "Cc1ncc(-c2nsc(N3CCN(CCc4ccc(F)c(F)c4)CC3)n2)cn1", "note": "[Example 182, 5-(4-(3,4-difluorophenethyl)piperazin-1-yl)-3-(2-methylpyrimidin-5-yl)-1,2,4-thiadiazole]", "values": [{"measurement": "pEC50", "value": 6.72}]}
{"smiles": "Fc1cccc(-c2nsc(N3CCN(CCc4ccc(F)c(F)c4)CC3)n2)c1", "note": "[Example 156, 5-(4-(3,4-difluorophenethyl)piperazin-1-yl)-3-(3-fluorophenyl)-1,2,4-thiadiazole]", "values": [{"measurement": "pEC50", "value": 7.92}]}
{"smiles": "CC(C)Oc1cccc(CCN2CCN(c3nc(-c4ccc(Cl)cc4)ns3)CC2)c1", "note": "[Example 51, 1-[3-(4-Chloro-phenyl)-[1,2,4]thiadiazol-5-yl]-4-[2-(3-isopropoxy-phenyl)-ethyl]-piperazine]", "values": [{"measurement": "pEC50", "value": 6.82}]}
{"smiles": "COc1ccc(CCN2CCN(c3nc(-c4ccc(F)cc4OC)ns3)CC2)cc1", "note": "[Example 67, 1-[3-(4-Fluoro-2-methoxy-phenyl)-[1,2,4]thiadiazol-5-yl]-4-[2-(4-methoxy-phenyl)-ethyl]-piperazine]", "values": [{"measurement": "pEC50", "value": 9.00}]}
{"smiles": "Cc1ccc(-c2nsc(N3CCN(CCc4ccc(Cl)cc4)CC3)n2)cn1", "note": "[Example 98, 1-[2-(4-Chloro-phenyl)-ethyl]-4-[3-(6-methyl-pyridin-3-yl)-[1,2,4]thiadiazol-5-yl]-piperazine]", "values": [{"measurement": "pEC50", "value": 7.09}]}
{"smiles": "COc1ccc(CCN2CCN(c3nc(-c4cc(Cl)ccn4)ns3)CC2)cc1", "note": "[Example 125, 1-[3-(4-Chloro-pyridin-2-yl)-[1,2,4]thiadiazol-5-yl]-4-[2-(4-methoxy-phenyl)-ethyl]-piperazine]", "values": [{"measurement": "pEC50", "value": 8.52}]}
{"smiles": "COc1ccc(-c2nsc(N3CCN(CCc4cccc(OC)c4)CC3)n2)cc1", "note": "[Example 49, 1-[2-(3-Methoxy-phenyl)-ethyl]-4-[3-(4-methoxy-phenyl)-[1,2,4]thiadiazol-5-yl]-piperazine]", "values": [{"measurement": "pEC50", "value": 7.30}]}
{"smiles": "Cc1ccc(-c2nsc(N3CCN(CCc4ccccc4)CC3)n2)cc1", "note": "[Example 4, 1-Phenethyl-4-(3-p-tolyl-[1,2,4]thiadiazol-5-yl)-piperazine]", "values": [{"measurement": "pEC50", "value": 6.94}]}
{"smiles": "COc1cc(CCN2CCN(c3nc(-c4ccnc(C)c4)ns3)CC2)ccn1", "note": "[Example 172, 5-(4-(2-(2-methoxypyridin-4-yl)ethyl)piperazin-1-yl)-3-(2-methylpyridin-4-yl)-1,2,4-thiadiazole]", "values": [{"measurement": "pEC50", "value": 7.84}]}
{"smiles": "FC(F)(F)c1ccc(CCN2CCN(c3nc(-c4cccc(Cl)c4)ns3)CC2)cc1", "note": "[Example 145, 1-[3-(3-Chloro-phenyl)-[1,2,4]thiadiazol-5-yl]-4-[2-(4-trifluoromethyl-phenyl)-ethyl]-piperazine]", "values": [{"measurement": "pEC50", "value": 6.34}]}
{"smiles": "COc1cccc(CCN2CCN(c3nc(-c4ccncc4)ns3)CC2)c1", "note": "[Example 20, 1-[2-(3-Methoxy-phenyl)-ethyl]-4-(3-pyridin-4-yl-[1,2,4]thiadiazol-5-yl)-piperazine]", "values": [{"measurement": "pEC50", "value": 6.76}]}
{"smiles": "COc1ccc(C(F)CN2CCN(c3nc(-c4ccc(Cl)cc4)ns3)CC2)cc1", "note": "(stereo not shown) [Example 64, 1-[3-(4-Chloro-phenyl)-[1,2,4]thiadiazol-5-yl]-4-[2-fluoro-2-(4-methoxy-phenyl)-ethyl]-piperazine]", "values": [{"measurement": "pEC50", "value": 8.01}]}
{"smiles": "COc1ccc(CCN2CCN(c3nc(-c4ccccc4Cl)ns3)CC2)cc1", "note": "[Example 58, 1-[3-(2-Chloro-phenyl)-[1,2,4]thiadiazol-5-yl]-4-[2-(4-methoxy-phenyl)-ethyl]-piperazine]", "values": [{"measurement": "pEC50", "value": 8.66}]}
{"smiles": "COc1cc(CCN2CCN(c3nc(-c4ccc(C#N)cc4)ns3)CC2)ccn1", "note": "[Example 116, 4-(5-{4-[2-(2-Methoxy-pyridin-4-yl)-ethyl]-piperazin-1-yl}-[1,2,4]thiadiazol-3-yl)-benzonitrile]", "values": [{"measurement": "pEC50", "value": 7.85}]}
{"smiles": "Cc1ccc(CCN2CCN(c3nc(-c4ccc(Cl)cc4)ns3)CC2)cc1", "note": "[Example 26, 1-[3-(4-Chloro-phenyl)-[1,2,4]thiadiazol-5-yl]-4-(2-p-tolyl-ethyl)-piperazine]", "values": [{"measurement": "pEC50", "value": 8.31}]}
{"smiles": "Fc1ccc(CCN2CCN(c3nc(-c4ccc(Cl)cc4)ns3)CC2)cc1F", "note": "[Example 134, 1-[3-(4-Chloro-phenyl)-[1,2,4]thiadiazol-5-yl]-4-[2-(3,4-difluoro-phenyl)-ethyl]-piperazine]", "values": [{"measurement": "pEC50", "value": 7.42}]}
{"smiles": "COc1cc(CCN2CCN(c3nc(-c4ccnc(Cl)c4)ns3)CC2)ccn1", "note": "[Example 168, 3-(2-chloropyridin-4-yl)-5-(4-(2-(2-methoxypyridin-4-yl)ethyl)piperazin-1-yl)-1,2,4-thiadiazole]", "values": [{"measurement": "pEC50", "value": 8.82}]}
{"smiles": "Fc1ccc(CCN2CCN(c3nc(-c4cccc(Cl)c4)ns3)CC2)cc1F", "note": "[Example 135, 1-[3-(3-Chloro-phenyl)-[1,2,4]thiadiazol-5-yl]-4-[2-(3,4-difluoro-phenyl)-ethyl]-piperazine]", "values": [{"measurement": "pEC50", "value": 8.35}]}
{"smiles": "Clc1ccc(-c2nsc(N3CCN(CC4(c5ccc(Cl)cc5)CC4)CC3)n2)cc1", "note": "[Example 68, 1-[1-(4-Chloro-phenyl)-cyclopropylmethyl]-4-[3-(4-chloro-phenyl)-[1,2,4]thiadiazol-5-yl]-piperazine]", "values": [{"measurement": "pEC50", "value": 6.05}]}
{"smiles": "Cc1cc(-c2nsc(N3CCN(CCc4ccc(F)cc4)CC3)n2)cnn1", "note": "[Example 174, 5-(4-(4-fluorophenethyl)piperazin-1-yl)-3-(6-methylpyridazin-4-yl)-1,2,4-thiadiazole]", "values": [{"measurement": "pEC50", "value": 7.90}]}
{"smiles": "COc1cc(CCN2CCN(c3nc(-c4cccc(F)c4)ns3)CC2)ccn1", "note": "[Example 90, 1-[3-(3-Fluoro-phenyl)-[1,2,4]thiadiazol-5-yl]-4-[2-(2-methoxy-pyridin-4-yl)-ethyl]-piperazine]", "values": [{"measurement": "pEC50", "value": 8.17}]}
